Consider four compounds from ChEMBL document CHEMBL4616674, “Fragment-based Differential Targeting of PPI Stabilizer Interfaces” (J Med Chem, 2020).

Test [1] has as its target T1, 14-3-3 protein sigma (Homo sapiens) (UniProt P31947).
T1 sequence (whole entry): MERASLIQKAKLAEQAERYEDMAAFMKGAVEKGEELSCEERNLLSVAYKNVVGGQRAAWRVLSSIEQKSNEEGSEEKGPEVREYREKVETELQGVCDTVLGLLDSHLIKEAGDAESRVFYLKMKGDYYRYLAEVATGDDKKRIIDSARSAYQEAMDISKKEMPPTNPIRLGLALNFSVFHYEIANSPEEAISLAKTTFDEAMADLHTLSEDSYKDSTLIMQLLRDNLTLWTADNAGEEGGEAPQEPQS
The test is described as follows: Binding affinity to 6x-His tagged 14-3-3-sigma (unknown origin) expressed in Escherichia coli BL21 (DE3) at 500 uM in presence of p53pT387 peptide by WaterLOGSY NMR spectroscopy.

Test [2] addresses T1, 14-3-3 protein sigma (Homo sapiens). The test is described as follows: Binding affinity to 15N2H labeled and 6x-His tagged 14-3-3-sigma (unknown origin) expressed in Escherichia coli assessed as induction of broadening (intensity decrease) and chemical shift value perturbation at 2000 uM in absence of p53pT387 peptide by 1H-15N TROSY-HSQC NMR spectroscopy.
Test [3] shares this target. As to the kind of experiment: Binding affinity to 15N2H labeled and 6x-His tagged 14-3-3-sigma (unknown origin) expressed in Escherichia coli assessed as induction of broadening (intensity decrease) and chemical shift value perturbation at 2000 uM in presence of p53pT387 peptide by 1H-15N TROSY-HSQC NMR spectroscopy.
Test [4] has the same target. The test is described as follows: Binding affinity to 6x-His tagged 14-3-3-sigma (unknown origin) expressed in Escherichia coli at 1 mM by fluorescence polarization assay.
Test [5] has the same target. As to the kind of experiment: Binding affinity to 6x-His tagged 14-3-3-sigma (unknown origin) expressed in Escherichia coli at 1 mM by SPR assay.
The target is the same in test [6]. As to the kind of experiment: Binding affinity to 6x-His tagged 14-3-3-sigma (unknown origin) expressed in Escherichia coli BL21 (DE3) in presence of acetylated p53pT387 peptide by crystallography.

Activity calls are given as the source filed them. The calls are words filed in the database; no cut-off is given here.

Take `CC(C)Oc1ccc(C(=O)NCCN)c2cc(C(=N)N)sc12`: the result in test [1], in test [2], in test [3], in test [4] and in test [5] was Active.
In the case of `N=C(N)c1cc(-c2ccccc2)c(-c2c[nH]cn2)s1`, in test [6], the result was Active.
The same measure, in the same setting: the result for `CC(CN)Nc1cccc2cc(C(=N)N)sc12` (stereo not drawn) reads “Active”; that for `CC(CN)Nc1cc(CS)cc2sc(C(=N)N)cc12` (stereo not drawn), “Active”.
